Assay results as given in patent US20260234157A1, “COMPOUND AND METHOD FOR TARGETED DEGRADATION OF ANDROGEN RECEPTOR” (Gan & Lee Pharmaceuticals Co., Ltd., priority 2023, published 2026).
Numbering of substitutions follows the chain as printed. Like-named read-outs stand apart in the source and are kept apart here.

Tests used:
[1] = biological target: T1, AR protein (Homo sapiens, UniProt P10275, T878A); test: Degradation of AR protein in LNCaP cells (Western blot); assay type: cell-based; details: for inhibition at 0.01 µM: read-out: Degradation rates of the AR protein in LNCaP cells, 10 nM (%); for inhibition at 0.1 µM: read-out: Degradation rates of the AR protein in LNCaP cells, 100 nM (%)
T1 construct: degradation activity of the compounds disclosed in the present disclosure on AR protein in LNCaP cells; host or cells: LNCaP FGC
T1 sequence (P10275 1-920 T878A): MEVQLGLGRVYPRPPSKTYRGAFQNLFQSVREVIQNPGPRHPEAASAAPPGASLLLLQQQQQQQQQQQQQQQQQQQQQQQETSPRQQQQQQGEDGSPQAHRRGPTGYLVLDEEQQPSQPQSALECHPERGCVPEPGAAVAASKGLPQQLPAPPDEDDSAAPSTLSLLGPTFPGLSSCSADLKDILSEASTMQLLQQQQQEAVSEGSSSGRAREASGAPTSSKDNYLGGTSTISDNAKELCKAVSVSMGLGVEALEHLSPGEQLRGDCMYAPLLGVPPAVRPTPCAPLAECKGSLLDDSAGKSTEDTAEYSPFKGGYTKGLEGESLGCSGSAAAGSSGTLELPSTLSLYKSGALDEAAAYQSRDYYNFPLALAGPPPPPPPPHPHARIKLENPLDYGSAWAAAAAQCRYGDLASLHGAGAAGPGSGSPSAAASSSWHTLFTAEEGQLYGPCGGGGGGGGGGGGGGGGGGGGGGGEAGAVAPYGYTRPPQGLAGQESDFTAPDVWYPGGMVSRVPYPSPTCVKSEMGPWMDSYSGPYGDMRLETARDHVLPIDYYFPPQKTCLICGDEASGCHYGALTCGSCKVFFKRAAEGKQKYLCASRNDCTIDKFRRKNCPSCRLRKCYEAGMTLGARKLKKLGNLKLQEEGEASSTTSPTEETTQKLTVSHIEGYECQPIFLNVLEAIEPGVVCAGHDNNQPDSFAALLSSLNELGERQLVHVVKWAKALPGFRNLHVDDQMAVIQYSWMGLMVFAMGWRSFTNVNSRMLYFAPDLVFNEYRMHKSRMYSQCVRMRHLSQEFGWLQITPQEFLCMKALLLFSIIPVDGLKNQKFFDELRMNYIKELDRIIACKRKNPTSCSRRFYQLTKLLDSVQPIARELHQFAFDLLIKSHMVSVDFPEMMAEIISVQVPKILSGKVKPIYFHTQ
Experimental: The degradation activity of the compounds disclosed in the present disclosure on AR protein in LNCaP cells (cell source: ATCC)
(§1) Corresponding solvent controls were also set and cultured for 8 hours. After 8 hours of cultivation, the culture medium was removed and the cells were washed with PBS. RIPA lysis buffer containing 1% Protease Inhibitor Cocktail was added, and the total protein extract was obtained by lysis and centrifugation. The protein concentration in the extract was detected by BCA method. Protein electrophoresis was performed using SDS-PAGE, followed by transfer of the protein onto a PVDF (Millipore Sigma catalog No. PSRP010R5) membrane at 100V constant voltage for 60 minutes. The PVDF membrane was then placed in a 1×TBST solution with 5% milk and blocked at room temperature for 1 hour. […] The primary antibody solution was discarded and the PVDF membrane was washed three times with 1×TBST for 5 minutes/time. […] The secondary antibody solution was discarded and the PVDF membrane was washed three times with 1×TBST for 5 minutes/time. Western blot imaging was performed by using a dual color infrared laser imaging system (Licor catalog No. Odyssey CLX). Bands were analyzed in grayscale using Image Studio software. For each sample, GAPDH protein bands were detected as internal reference. The degradation rates of the AR protein for the compounds and the positive control sample were calculated based on grayscale of the protein bands.

[2] = biological target: T2, AR protein (Homo sapiens, UniProt P10275); test: Degradation of AR protein in VCaP cells (Western blot); assay type: cell-based; details: 8 hours; for inhibition at 0.01 µM: read-out: Degradation rate of the AR protein in VCaP cells, 10 nM (%); for inhibition at 0.1 µM: read-out: Degradation rate of the AR protein in VCaP cells, 100 nM (%)
T2 construct: degradation activity of the compounds disclosed in the present disclosure on AR protein in VCaP cells; host or cells: VCaP
T2 sequence (P10275 1-920): T1 sequence (P10275 1-920 T878A) with A878T
Experimental: The degradation activity of the compounds disclosed in the present disclosure on AR protein in VCaP cells (cell source: ATCC)
as §1

[3] = LNCaP cells, compound 10 nM, 8 hours, Western blot grayscale, GAPDH internal reference
[4] = LNCaP cells, compound 100 nM, 8 hours, Western blot grayscale, GAPDH internal reference

Degradation rate of the AR protein in VCaP cells, 10 nM (%) ([2]; compound at 10 nM) | Degradation rate of the AR protein in VCaP cells, 100 nM (%) ([2]; compound at 100 nM) | SMILES | inhibition at 0.01 µM ([1]; LNCaP, 8 h) [%] | inhibition at 0.1 µM ([1]; LNCaP, 8 h) [%] | inhibition at 0.01 µM ([2]; compound at 10 nM) [%] | inhibition at 0.1 µM ([2]; compound at 100 nM) [%] | inhibition at 0.01 µM [1, 3] [%] | inhibition at 0.1 µM [1, 4] [%]
– | – | N#Cc1ccc(O[C@H]2CC[C@H](NC(=O)c3ccc(N4CC(N5CCC6(CC5)Cc5cc7c(cc5O6)C(=O)N(C5CCC(=O)NC5=O)C7=O)C4)nn3)CC2)cc1Cl (some centres unmarked) [Compound 79] | 23 | 28 | 36 | 42 | – | –
– | – | COc1cc(O[C@H]2CC[C@H](NC(=O)c3ccc(N4CCC(C)(CN5CCC6(CC5)COc5c6ccc6c5C(=O)N(C5CCC(=O)NC5=O)C6=O)CC4)nn3)CC2)ccc1C#N (some centres unmarked) [Compound 180] | – | – | 29 | 73 | 12 | 53
– | – | N#Cc1ccc(O[C@H]2CC[C@H](NC(=O)c3cnc(N4CCC(F)(CN5CCC6(CC5)COc5c6ccc6c5CN(C5CCC(=O)NC5=O)C6=O)CC4)nc3)CC2)cc1Cl (some centres unmarked) [Compound 158] | – | – | 62 | 81 | 43 | 37
– | – | N#Cc1ccc(O[C@H]2CC[C@H](NC(=O)c3ccc(N4CCC(CN5CC6(CCc7cc8c(cc7O6)C(=O)N(C6CCC(=O)NC6=O)C8=O)C5)CC4)nn3)CC2)cc1Cl (some centres unmarked) [Compound 1] | – | – | 65 | 79 | 44 | 82
– | – | CC1(CN2CCC3(CC2)COc2c3ccc3c2CN(C2CCC(=O)NC2=O)C3=O)CCN(c2ncc(C(=O)N[C@H]3CC[C@H](Oc4ccc(C#N)c(Cl)c4)CC3)cn2)CC1 (some centres unmarked) [Compound 193] | – | – | 21 | 78 | 18 | 31
– | – | N#Cc1ccc(O[C@H]2CC[C@H](NC(=O)c3ccc(N4CCC(N5CC(N6CCC7(CC6)COc6c7ccc7c6CN(C6CCC(=O)NC6=O)C7=O)C5)CC4)nn3)CC2)cc1Cl (some centres unmarked) [Compound 144] | – | – | 82 | 86 | 68 | 39
– | – | N#Cc1ccc(O[C@H]2CC[C@H](NC(=O)c3ccc(N4CC(N5CCC6(CC5)COc5c6ccc6c5CN(C5CCC(=O)NC5=O)C6=O)C4)nn3)CC2)cc1Cl (some centres unmarked) [Compound 183] | 40 | 51 | 75 | 84 | – | –
– | – | N#Cc1ccc(O[C@H]2CC[C@H](NC(=O)c3ccc(N4CCC5(CC4)CC(N4CCC6(CCc7cc8c(cc7O6)C(=O)N(C6CCC(=O)NC6=O)C8=O)CC4)C5)nn3)CC2)cc1Cl (some centres unmarked) [Compound 31] | – | – | 67 | 70 | 52 | 69
– | – | N#Cc1ccc(O[C@H]2CC[C@H](NC(=O)c3ccc(N4CC(N5CCC6(CCc7cc8c(cc7O6)CN(C6CCC(=O)NC6=O)C8=O)CC5)C4)nn3)CC2)cc1Cl (some centres unmarked) [Compound 42] | 29 | 49 | 45 | 33 | – | –
– | – | COC1(CN2CC3(CCc4cc5c(cc4O3)C(=O)N(C3CCC(=O)NC3=O)C5)C2)CCN(c2ccc(C(=O)N[C@H]3CC[C@H](Oc4ccc(C#N)c(Cl)c4)CC3)nn2)CC1 (some centres unmarked) [Compound 9] | – | – | 87 | 82 | 56 | 66
– | – | N#Cc1ccc(O[C@H]2CC[C@H](NC(=O)c3cnc(N4CCC(F)(CN5CCC6(CC5)COc5c6ccc6c5CN(C5CCC(=O)NC5=O)C6=O)CC4)cn3)CC2)cc1Cl (some centres unmarked) [Compound 157] | – | – | 46 | 84 | 51 | 52
– | – | N#Cc1ccc(O[C@H]2CC[C@H](NC(=O)c3cnc(N4CCC5(CC4)COc4c5ccc5c4CN(C4CCC(=O)NC4=O)C5=O)nc3)CC2)cc1Cl (some centres unmarked) [Compound 201] | – | – | -11 | 32 | 6 | 32
– | – | N#Cc1ccc(O[C@H]2CC[C@H](NC(=O)c3ccc(N4CCC(CN5CCC6(CC5)COc5cc7c(cc5O6)CN(C5CCC(=O)NC5=O)C7=O)CC4)nn3)CC2)cc1Cl (some centres unmarked) [Compound 76] | – | – | 84 | 76 | 74 | 74
– | – | N#Cc1ccc(O[C@H]2CC[C@H](NC(=O)c3ccc(N4CCC(N5CCC6(CC5)COc5c6ccc6c5CN(C5CCC(=O)NC5=O)C6=O)CC4)nn3)CC2)cc1Cl (some centres unmarked) [Compound 169] | 75 | 53 | 79 | 82 | – | –
– | – | N#Cc1ccc(O[C@H]2CC[C@H](NC(=O)c3ccc(N4CCC5(CCC(N6CCC7(CC6)COc6c7ccc7c6CN(C6CCC(=O)NC6=O)C7=O)CC5)CC4)nn3)CC2)cc1Cl (some centres unmarked) [Compound 137] | – | – | 80 | 90 | 68 | 21
– | – | N#Cc1ccc(O[C@H]2CC[C@H](NC(=O)c3ccc(N4CC5(CCC(N6CCC7(CC6)COc6c7ccc7c6CN(C6CCC(=O)NC6=O)C7=O)CC5)C4)nn3)CC2)cc1Cl (some centres unmarked) [Compound 168] | – | – | 76 | 77 | 70 | 26
– | – | N#Cc1ccc(O[C@H]2CC[C@H](NC(=O)c3ccc(N4CCC5(CC4)CC(N4CCC6(CC4)COc4c6ccc6c4CN(C4CCC(=O)NC4=O)C6=O)C5)nn3)CC2)cc1Cl (some centres unmarked) [Compound 184] | – | – | – | – | 79 | 41
−14 | 38 | N#Cc1ccc(O[C@H]2CC[C@H](NC(=O)c3ccc(N4CC5(CC(N6CCC7(CC6)COc6c7ccc7c6C(=O)N(C6CCC(=O)NC6=O)C7=O)C5)C4)nn3)CC2)cc1Cl (some centres unmarked) [Compound 140] | – | – | – | – | – | –
